# Laboratory results from patent publication EP4717277A1, “USE OF DRUG CONJUGATE IN TREATING TUMOR DISEASE AND METHOD THEREFOR” (Sichuan Kelun-Biotech Biopharmaceutical Co., Ltd., priority 2023, dated 2024).
# Assays:
# [1] = Toxicokinetic behavior of the conjugate and released toxin molecules after repeated intravenous dosing; type: in vivo, cynomolgus monkeys; settings: after the last dosing with 50 mg/kg conjugate A
# Method: The cynomolgus monkeys were divided into four groups according to different doses: control group, 25 mg/kg dose group, 50 mg/kg dose group and 75 mg/kg dose group, with 5 males and 5 females in each group. […] For the monkeys in each group, blood samples were collected before and immediately after, and 4 h, 24 h, 48 h, 96 h and 168 h after the first and last dosing (0-1 min after the end of dosing), 1 h before and immediately after the second and third dosing (0-1 min after the end of dosing), and 336 h after the last dosing.
# [2] = Clinical trial, pharmacokinetic study of the dose-escalation cohort; type: in vivo, human; settings: patients, first 4-week cycle
# Method: Based on the patient's weight, a dose escalation design with five dose cohorts of 2, 4, 6, 9 and 12 mg/kg was employed, which were injected intravenously once every two weeks, every 28 days as a cycle, and were given every cycle until the disease progressed or an intolerable toxic reaction occurred. The toxicity of all planned dose groups and some intermediate dose groups was evaluated by BLRM. Based on the model analysis, the sponsor and the researcher jointly decided the decision of dose increase.
smiles,measurement,setting,value
CC[C@@]1(O)C(=O)OCc2c1cc1n(c2=O)Cc2c-1nc1ccccc1c2CCN(C(C)C)S(C)(=O)=O [toxins],exposure to the toxin molecules,[1]; female monkeys,3850 ng·h/mL
same,exposure to the toxin molecules,[1]; male monkeys,5860 ng·h/mL
same,plasma exposure of free payload (area under the curve (AUC)) relative to that of Conjugate A,[2],~5%
same,plasma exposure of free payload (maximum plasma concentration (Cmax)) relative to that of Conjugate A,[2],approximately 6%
